We go through 8 molecules from ChEMBL document CHEMBL1201862, “PubChem BioAssay data set” (2004).

Among the test systems are UACC-62; CCRF-CEM; SNB-19; MDA-N; TK-10; OVCAR-8; 786-0; SK-OV-3; T47D; NCI-H460; HCC 2998; HCT-15; SW-620; UACC-257; HL-60; SN12C; OVCAR-3; NCI-H522; SK-MEL-2.
Test in all cases: DTP human tumour cell line panel, 48 h

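Step 1: Grow cells in 96-well plates. Step 2: Expose to compound for 48 hours at 5 concentrations. Step 3: Interpolate endpoints linearly; if unreached, use highest concentration. At the GI50, growth is halved.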 Active and inactive are the calls of the source. Cut-off read from the data, not from the text of the source: active = GI50 up to about 1.1 µM and inactive = higher. Where only a bound is given, the exact number is not on record here.

For the molecule `CC1=C(c2ccc(C)cc2)NC(=S)C(C)C(c2ccc(C)cc2)=N1` (centres undefined), the GI50 with UACC-62 is 89.7 µM (inactive); in the experiment with CCRF-CEM, 27.2 µM (inactive); in the experiment with SNB-19, > 100 µM (inactive); in the experiment on MDA-N, 83.9 µM (inactive); in the experiment with TK-10 it was > 100 µM (inactive); in the experiment with OVCAR-8 it was > 100 µM (inactive). Also, the GI50 is > 100 µM (inactive) in the experiment on 786-0; > 100 µM (inactive) with SK-OV-3; 37.1 µM (inactive) in the experiment on T47D; > 100 µM (inactive) in the experiment with NCI-H460; 89.3 µM (inactive) in the experiment with HCC 2998; 82.8 µM in the experiment with HCT-15. Further, the GI50 in the experiment on SW-620 was > 100 µM (inactive); in the experiment on UACC-257, 51.1 µM (inactive); in the experiment on HL-60, 30.3 µM (inactive); in the experiment on SN12C, > 100 µM (inactive).

For `c1csc(-c2cc(-c3cccs3)c(-c3cccs3)s2)c1`, the GI50 in the experiment with UACC-62 is 54.2 µM (inactive); in the experiment with CCRF-CEM, 35.6 µM (inactive); with SNB-19, > 100 µM (inactive); in the experiment with MDA-N, 32 µM (inactive); with TK-10 it was > 100 µM (inactive); in the experiment with OVCAR-8 it was > 100 µM (inactive). The GI50 with 786-0 is > 100 µM (inactive); in the experiment with OVCAR-3, > 100 µM (inactive); in the experiment on SK-OV-3 it was > 100 µM (inactive); in the experiment on T47D, 4.69 µM (inactive); in the experiment on NCI-H460 it was 47.2 µM (inactive); in the experiment with HCC 2998, 58.5 µM (inactive). Further, the GI50 was 49.8 µM in the experiment with HCT-15; > 100 µM (inactive) in the experiment on SW-620; 69.3 µM (inactive) in the experiment with NCI-H522; 55.3 µM (inactive) in the experiment with UACC-257; > 100 µM (inactive) with SN12C.

Turning to `Cc1cc2[n-][n+]3ncc(-c4ccccc4)n3c2cc1[N+](=O)[O-]`, the GI50 was > 100 µM (inactive) in the experiment on UACC-62; > 100 µM (inactive) in the experiment with CCRF-CEM; > 100 µM (inactive) in the experiment on SNB-19; > 10 µM (inactive) in the experiment on MDA-N; > 100 µM (inactive) in the experiment with TK-10; > 100 µM (inactive) in the experiment on 786-0. Also, the GI50 in the experiment with OVCAR-3 was > 100 µM (inactive); in the experiment with SK-OV-3, > 100 µM (inactive); in the experiment on T47D, > 100 µM (inactive); with NCI-H460, > 100 µM (inactive); in the experiment with HCT-15, greater than 100 µM; in the experiment on SK-MEL-2, > 100 µM (inactive). Moreover, the GI50 with SW-620 was > 100 µM (inactive); in the experiment with NCI-H522, > 100 µM (inactive); in the experiment on UACC-257, > 100 µM (inactive); in the experiment on HL-60, > 100 µM (inactive); with SN12C, > 10 µM (inactive).

On to `Cc1c(S(=O)(=O)/N=C(\NN)Nc2ccc(Cl)cc2)sc2ccc(Cl)cc12`, for which the GI50 with UACC-62 is 14.2 µM (inactive); in the experiment with CCRF-CEM it was 16.3 µM (inactive); in the experiment with SNB-19, 23.3 µM (inactive); in the experiment with MDA-N, 15.6 µM (inactive); in the experiment with TK-10, 17 µM (inactive); in the experiment with OVCAR-8, 16.8 µM (inactive). Further, the GI50 is 17.5 µM (inactive) in the experiment with 786-0; 16.6 µM (inactive) in the experiment with OVCAR-3; 19.7 µM (inactive) in the experiment with SK-OV-3; 10.2 µM (inactive) with T47D; 16.6 µM (inactive) with NCI-H460; 16.6 µM with HCT-15. Besides, the GI50 in the experiment with SK-MEL-2 was 16.3 µM (inactive); with SW-620 it was 24 µM (inactive); in the experiment on NCI-H522 it was 17.3 µM (inactive); in the experiment on UACC-257 it was 18.2 µM (inactive); with HL-60, 32.4 µM (inactive); in the experiment with SN12C it was 16.7 µM (inactive).

As for `CCC1CCC2c3c([nH]c4ccccc34)C3C(=O)N(c4ccc(OC)cc4)C(=O)C3C2C1` (centres undefined), the GI50 in the experiment on UACC-62 is 61.8 µM (inactive); with CCRF-CEM, 11.1 µM (inactive); in the experiment with SNB-19 it was 28.3 µM (inactive); with MDA-N, 55.7 µM (inactive); in the experiment on TK-10 it was 28.2 µM (inactive); with OVCAR-8, 27.1 µM (inactive). Moreover, the GI50 in the experiment with 786-0 is > 100 µM (inactive); in the experiment on OVCAR-3 it was 22.3 µM (inactive); with SK-OV-3, 36.4 µM (inactive); in the experiment on T47D, 16.8 µM (inactive); in the experiment on NCI-H460, 30.4 µM (inactive); in the experiment on HCC 2998, 91.2 µM (inactive). The GI50 in the experiment with HCT-15 is 35.1 µM; with SW-620, 17.7 µM (inactive); in the experiment on NCI-H522 it was 77.6 µM (inactive); in the experiment on UACC-257, > 100 µM (inactive); with HL-60, 28.2 µM (inactive); with SN12C it was 68.9 µM (inactive).

For `Cc1ccc2c(c1)CC1(Cc3c(C)cccc3C1=O)C2=O` (centres undefined), the GI50 is 44.7 µM (inactive) in the experiment with UACC-62; > 100 µM (inactive) in the experiment on CCRF-CEM; 37.6 µM (inactive) in the experiment on SNB-19; > 100 µM (inactive) with MDA-N; > 100 µM (inactive) in the experiment on TK-10; > 100 µM (inactive) in the experiment on OVCAR-8. Further, the GI50 in the experiment with 786-0 was > 100 µM (inactive); with OVCAR-3, > 100 µM (inactive); in the experiment with SK-OV-3 it was 76.2 µM (inactive); in the experiment with T47D, > 100 µM (inactive); in the experiment on NCI-H460 it was > 100 µM (inactive); with HCC 2998, > 100 µM (inactive). For the same molecule, the concentration for 50% growth inhibition (GI50) in the experiment on HCT-15 is greater than 100 µM; in the experiment with SW-620, > 100 µM (inactive); in the experiment on NCI-H522, > 100 µM (inactive); in the experiment on UACC-257 it was > 100 µM (inactive); with HL-60, > 100 µM (inactive); with SN12C, > 100 µM (inactive).

Turning to `N#Cc1c(N)c(-c2ccc(Cl)cc2)c(F)c2ccccc12`, the GI50 in the experiment on UACC-62, with SNB-19, in the experiment with MDA-N, in the experiment on TK-10, in the experiment on OVCAR-8 and in the experiment on 786-0 was > 100 µM (inactive) throughout. Besides, the GI50 in the experiment with OVCAR-3 is > 100 µM (inactive); in the experiment on SK-OV-3, > 100 µM (inactive); with T47D it was > 100 µM (inactive); in the experiment on NCI-H460 it was > 100 µM (inactive); in the experiment with HCC 2998 it was > 100 µM (inactive); in the experiment with HCT-15, greater than 100 µM. Also, the GI50 in the experiment on SK-MEL-2, in the experiment with SW-620, in the experiment with NCI-H522, in the experiment with UACC-257 and in the experiment with SN12C was > 100 µM (inactive) in each case.

For `O=c1c(Cc2ccccc2Cc2c(O)oc3ccccc3c2=O)c(O)oc2ccccc12`, the GI50 in the experiment with UACC-62, in the experiment with CCRF-CEM, with SNB-19, in the experiment with MDA-N, in the experiment with TK-10 and in the experiment on OVCAR-8 was > 100 µM (inactive) in each case. The GI50 in the experiment with 786-0 is > 100 µM (inactive); with OVCAR-3, > 100 µM (inactive); in the experiment on SK-OV-3 it was > 100 µM (inactive); in the experiment with T47D it was > 100 µM (inactive); in the experiment with NCI-H460 it was > 100 µM (inactive); with HCT-15, greater than 100 µM. Moreover, the GI50 with SK-MEL-2, with SW-620, in the experiment with NCI-H522, in the experiment with UACC-257, with HL-60 and in the experiment on SN12C was > 100 µM (inactive) in each case.

For orientation: GI50 means the concentration at which growth is held to half of that of the control.
